# Like-named read-outs stand apart in the source and are kept apart here.
# Legend:
# [1] = target: T1, Butyryl-cholinesterase (Equus caballus, UniProt P81908); experiment: biochemical; assay type: biochemical; conditions: for IC50: Ellman method, 37 °C, PBS pH 7.4, 412 nm, read-out: IC50 Value Butyrylcholinesterase
# T1 construct: butyryl-cholinesterase was from equine serum; purchased Sigma-Aldrich; host or cells: equine serum
# Excerpt: (§1) HPLC-grade methanol and acetonitrile were purchased from Shanghai, China (Sinopharm Chemical Reagent Co., Ltd., Shanghai, China). Acetyl-cholinesterase was from electric eel, butyryl-cholinesterase was from equine serum, and acetylthiocholine iodide was purchased from Sigma-Aldrich (Sigma-Aldrich company, St. Louis, MO, USA). […] AB-8 macroporous resin was purchased from Yuanye (Yuanye Biochemical Technology Co., Ltd., Shanghai, China).
# (§2) The Ellman method was used to determine the inhibitory activity of acetyl-cholinesterase and butyryl-cholinesterase of each monomer compound. Briefly, 150 µL of PBS buffer solution (pH = 7.4), 10 µL of the tested compound solution, and 20 µL of acetyl-cholinesterase or butyryl-cholinesterase solution (concentration of 0.2 U/mL) were transferred to a 96-well plate and placed in a gas bath constant temperature oscillator at 37 °C for 15 min. […] Then, 10 µL PBS was added to the blank group to exclude other irrelevant factors from affecting the experimental results and ensure the rationality of the experimental results. […] Inhibition Rate = (Anegative control group − Atest group/Anegative control group − Ablank group) × 100%(2)
# [2] = target: T2, Acetyl-cholinesterase (Electrophorus electricus, UniProt O42275); experiment: biochemical; assay type: biochemical
# T2 construct: Acetyl-cholinesterase was from electric eel; purchased Sigma-Aldrich; host or cells: electric eel (natural source)
# Excerpt: as §1, §2
# [3] = Ellman method, 37 °C, PBS pH 7.4, 412 nm, read-out: IC50 Value Acetylcholinesterase
# T2 sequence (O42275 24-633): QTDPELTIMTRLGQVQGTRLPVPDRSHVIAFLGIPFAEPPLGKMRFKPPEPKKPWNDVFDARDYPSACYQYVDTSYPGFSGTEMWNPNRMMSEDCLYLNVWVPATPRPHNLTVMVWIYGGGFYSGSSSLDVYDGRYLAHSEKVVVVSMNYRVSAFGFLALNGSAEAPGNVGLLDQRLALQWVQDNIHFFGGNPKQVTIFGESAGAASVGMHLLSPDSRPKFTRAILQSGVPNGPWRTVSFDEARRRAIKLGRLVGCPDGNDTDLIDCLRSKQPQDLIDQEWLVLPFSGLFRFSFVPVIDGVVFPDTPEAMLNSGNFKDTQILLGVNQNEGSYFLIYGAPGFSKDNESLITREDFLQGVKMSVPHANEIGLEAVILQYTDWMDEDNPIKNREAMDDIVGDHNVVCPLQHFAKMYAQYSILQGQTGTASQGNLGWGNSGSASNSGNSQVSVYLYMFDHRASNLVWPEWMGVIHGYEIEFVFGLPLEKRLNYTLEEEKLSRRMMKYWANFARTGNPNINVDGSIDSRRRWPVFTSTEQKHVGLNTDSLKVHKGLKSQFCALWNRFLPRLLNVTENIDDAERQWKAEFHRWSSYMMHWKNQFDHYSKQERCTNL
# T1 sequence (P81908 whole entry): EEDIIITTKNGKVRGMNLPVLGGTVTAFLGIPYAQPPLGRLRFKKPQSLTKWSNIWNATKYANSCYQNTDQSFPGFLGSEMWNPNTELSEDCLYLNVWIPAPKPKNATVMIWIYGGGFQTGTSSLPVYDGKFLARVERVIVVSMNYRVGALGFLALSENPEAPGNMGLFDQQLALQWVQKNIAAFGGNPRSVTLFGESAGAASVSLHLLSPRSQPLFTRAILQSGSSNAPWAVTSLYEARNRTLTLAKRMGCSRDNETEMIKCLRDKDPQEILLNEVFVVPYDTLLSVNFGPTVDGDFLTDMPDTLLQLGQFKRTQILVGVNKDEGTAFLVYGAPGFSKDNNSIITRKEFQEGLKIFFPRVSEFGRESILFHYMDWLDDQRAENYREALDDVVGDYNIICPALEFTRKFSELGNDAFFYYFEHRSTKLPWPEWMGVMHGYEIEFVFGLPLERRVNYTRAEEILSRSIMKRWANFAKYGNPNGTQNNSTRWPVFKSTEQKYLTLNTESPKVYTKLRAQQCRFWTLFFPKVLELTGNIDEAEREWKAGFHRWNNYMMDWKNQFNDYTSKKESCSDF
Structure (SMILES),IC50 [1],butyryl-cholinesterase inhibitory activity (in words) ([1]; qualitative statement),"IC50 [2, 3]",acetyl-cholinesterase inhibitory activity (in words) ([2]; qualitative statement),IC50 [2]
"C=C[C@H]1C(O[C@H]2O[C@H](CO)[C@@H](O)[C@H](O)[C@H]2O)OC=C2C(=O)N3CC[C@]4(C(=O)Nc5ccccc54)[C@H]3C[C@H]21 (stereo partly drawn) [Compound 1, 7-epi-javaniside]",2.13 ± 0.1 µM,close to that of the positive drug,2.85 ± 0.5 µM,close to that of the positive drug,
"C=CC1C2C[C@H]3c4[nH]c5ccccc5c4CCN3C(=O)C2=CO[C@H]1O[C@H]1O[C@H](CO)[C@@H](O)[C@H](O)[C@H]1O (stereo partly drawn) [Compound 2, vincosamide]",23.18 ± 0.14 µM,,,,12.4 ± 0.86 µM
"C=CC1C2C[C@@H]3c4[nH]c5ccccc5c4CCN3C(=O)C2=CO[C@H]1O[C@H]1O[C@H](CO)[C@@H](O)[C@H](O)[C@H]1O (stereo partly drawn) [Compound 3, strictosamide]",6.47 ± 0.72 µM,,,,46.6 ± 0.58 µM
"COC(=O)C1=COC(OC2OC(CO)C(O)C(O)C2O)C2C3CN4CCc5c([nH]c6ccccc56)C4(CC12)O3 (stereo not drawn) [Compound 4, cadambine]",30.7 ± 0.69 µM,,,,26.1 ± 2.12 µM
"COC(=O)C1=COC(OC2OC(CO)C(O)C(O)C2O)C2C(O)CN3CCc4c([nH]c5ccccc45)C3CC12 (stereo not drawn) [Compound 5, 3α-dihydrocadambine]",33.3 ± 0.51 µM,,37 ± 1.57 µM,,

# Source: article PMC8949104, “Bioactivity-Guided Separation of Anti-Cholinesterase Alkaloids from Uncaria rhynchophlly (Miq.) Miq. Ex Havil Based on HSCCC Coupled with Molecular Docking” (Molecules, 2022)
